Experimental data taken from US9695155B2, “Herbicidal substituted pyrimidinyloxy benzene compounds” (E. I. DU PONT DE NEMOURS AND COMPANY, priority 2013, dated 2017).

Key:
corn [1] = experiment: Test A preemergence; type: in vivo, Zea mays; settings: for Corn plant response rating: 500 g ai/ha
In short: (§1)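 Pre- and postemergence greenhouse screen. Soil: loam + sand. Spray carrier: solvent mixture, non-phytotoxic, with surfactant. Post timing at 1–2 leaves, height 2–10 cm. Readout: visual injury on a 0–100 scale roughly 10 days after application, untreated plants as reference.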

barnyardgrass [2] = experiment: Test A postemergence; type: in vivo, Echinochloa crus-galli; settings: 0 to 100 scale where 0 is no effect and 100 is complete control; for Barnyardgrass plant response rating: 125 g ai/ha; for Plant response rating, Barnyardgrass: 500 g ai/ha
In short: as §1

corn [3] = experiment: Test A postemergence; type: in vivo, Zea mays; settings: 0 to 100 scale where 0 is no effect and 100 is complete control; for Corn plant response rating: 125 g ai/ha; for Plant response rating, Corn: 500 g ai/ha
In short: as §1

Italian ryegrass = experiment: Test C preemergence; type: in vivo, Lolium multiflorum; settings: for Ryegrass, Italian plant response rating: preemergence
In short: (§2)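 Plants were kept under greenhouse conditions for 13–15 days following spray. Pre-emergent application went to soil (loam–sand), post-emergent to foliage at 1–4 leaves. Evaluation: visual, percent control against untreated checks.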

wheat, winter [4] = experiment: Test C preemergence; type: in vivo, Triticum aestivum; settings: for Wheat plant response rating: preemergence
In short: as §2

morningglory = experiment: Test C preemergence; type: in vivo, Ipomoea coccinea; settings: for Morningglory plant response rating: preemergence
In short: as §2

soybean = experiment: Test C preemergence; type: in vivo, Glycine max; settings: for Soybean plant response rating: preemergence
In short: as §2

velvetleaf = experiment: Test C preemergence; type: in vivo, Abutilon theophrasti; settings: for Velvetleaf plant response rating: preemergence
In short: as §2

wheat, winter [5] = experiment: Test C postemergence; type: in vivo, Triticum aestivum; settings: for Wheat plant response rating: 31 g ai/ha; for Wheat plant response rating / Plant response rating, Wheat: scale 0 to 100 (0 no effect, 100 complete control)
In short: as §2

galium = experiment: Test C postemergence; type: in vivo, Galium aparine; settings: for Galium plant response rating: 31 g ai/ha; for Galium plant response rating / Plant response rating, Galium: scale 0 to 100 (0 no effect, 100 complete control)
In short: as §2

yellow nutsedge = experiment: Test C postemergence; type: in vivo, Cyperus esculentus; settings: for Nutsedge, Yellow plant response rating: 31 g ai/ha; for Nutsedge, Yellow plant response rating / Plant response rating, Nutsedge, Yellow: scale 0 to 100 (0 no effect, 100 complete control)
In short: as §2

ragweed = experiment: Test C postemergence; type: in vivo, Ambrosia elatior; settings: for Ragweed plant response rating: 31 g ai/ha; for Ragweed plant response rating / Plant response rating, Ragweed: scale 0 to 100 (0 no effect, 100 complete control)
In short: as §2

barnyardgrass [6] = experiment: Test C postemergence; type: in vivo, Echinochloa crus-galli; settings: for Barnyardgrass plant response rating: 31 g ai/ha, 13 to 15 days; for Barnyardgrass plant response rating / Plant response rating, Barnyardgrass: scale 0 to 100 (0 no effect, 100 complete control)
In short: as §2

waterhemp = experiment: Test C postemergence; type: in vivo, Amaranthus rudis; settings: for Waterhemp plant response rating: 31 g ai/ha; for Waterhemp plant response rating / Plant response rating, Waterhemp: scale 0 to 100 (0 no effect, 100 complete control)
In short: as §2

wild oat = experiment: Test C postemergence; type: in vivo, Avena fatua; settings: for Oat, Wild plant response rating: 31 g ai/ha; for Oat, Wild plant response rating / Plant response rating, Oat, Wild: scale 0 to 100 (0 no effect, 100 complete control)
In short: as §2

[7] = 0 to 100 scale where 0 is no effect and 100 is complete control
[8] = 125 g ai/ha, scale 0 (no effect) to 100 (complete control)
[9] = 250 g ai/ha, scale 0 (no effect) to 100 (complete control)
[10] = Preemergence, 62 g ai/ha, scale 0 to 100, 0 no effect, 100 complete control
[11] = postemergence, visual rating, 13 to 15 days
[12] = 125 g ai/ha, postemergence, visual rating
[13] = Postemergence, 62 g ai/ha, 13 to 15 days
[14] = 16 g ai/ha, scale 0 to 100 (0 no effect, 100 complete control)
[15] = 62 g ai/ha, scale 0 (no effect) to 100 (complete control)
[16] = 16 g ai/ha, postemergence, 0 is no effect, 100 is complete control

Structure (SMILES): N#Cc1cnn(-c2c(C#N)cccc2Oc2ncc(Cl)cn2)c1 [Compound 200]
- Corn plant response rating (0 to 100 scale) (corn [1]; 125 g ai/ha): 40
- Corn plant response rating (corn [1]; [7]): 50
- Barnyardgrass plant response rating (barnyardgrass [2]): 80
- Plant response rating, Barnyardgrass (barnyardgrass [2]): 90
- Corn plant response rating (corn [3]): 50
- Plant response rating, Corn (corn [3]): 60
- Ryegrass, Italian plant response rating (Italian ryegrass; [8]): 85
- Ryegrass, Italian plant response rating (Italian ryegrass; [9]): 95
- Plant response rating, Ryegrass, Italian (Italian ryegrass; [10]): 70
- Wheat plant response rating (wheat, winter [4]; [8]): 90
- Wheat plant response rating (wheat, winter [4]; [9]): 95
- Plant response rating, Wheat (wheat, winter [4]; [10]): 65
- Morningglory plant response rating (morningglory; [8]): 98
- Morningglory plant response rating (morningglory; [9]): 98
- Plant response rating, Morningglory (morningglory; [10]): 95
- Soybean plant response rating (soybean; [8]): 95
- Soybean plant response rating (soybean; [9]): 100
- Plant response rating, Soybean (soybean; [10]): 90
- Velvetleaf plant response rating (velvetleaf; [8]): 100
- Velvetleaf plant response rating (velvetleaf; [9]): 100
- Plant response rating, Velvetleaf (velvetleaf; [10]): 100
- Wheat plant response rating (wheat, winter [5]; [11]): 0
- Plant response rating, Wheat (wheat, winter [5]; [12]): 5
- Plant response rating (0 to 100), Wheat (wheat, winter [5]; 250 g ai/ha, postemergence): 5
- Plant response rating, Wheat (wheat, winter [5]; [13]): 0
- Galium plant response rating (galium; [11]): 60
- Plant response rating, Galium (galium; [12]): 85
- Plant response rating (0 to 100), Galium (galium; 250 g ai/ha, postemergence): 95
- Plant response rating, Galium (galium; [13]): 65
- Nutsedge, Yellow plant response rating (yellow nutsedge; [11]): 5
- Plant response rating, Nutsedge, Yellow (yellow nutsedge; [12]): 30
- Plant response rating (0 to 100), Nutsedge, Yellow (yellow nutsedge; 250 g ai/ha, postemergence): 35
- Plant response rating, Nutsedge, Yellow (yellow nutsedge; [13]): 5
- Ragweed plant response rating (ragweed; [11]): 25
- Plant response rating, Ragweed (ragweed; [12]): 55
- Plant response rating (0 to 100), Ragweed (ragweed; 250 g ai/ha, postemergence): 85
- Plant response rating, Ragweed (ragweed; [13]): 40
- Barnyardgrass plant response rating (barnyardgrass [6]; postemergence, visual rating): 0
- Plant response rating, Barnyardgrass (barnyardgrass [6]; [12]): 10
- Plant response rating (0 to 100), Barnyardgrass (barnyardgrass [6]; 250 g ai/ha, postemergence): 15
- Plant response rating, Barnyardgrass (barnyardgrass [6]; Postemergence, 62 g ai/ha): 5
- Waterhemp plant response rating (waterhemp; [11]): 70
- Plant response rating, Waterhemp (waterhemp; [12]): 90
- Plant response rating (0 to 100), Waterhemp (waterhemp; 250 g ai/ha, postemergence): 95
- Plant response rating, Waterhemp (waterhemp; [13]): 98
- Oat, Wild plant response rating (wild oat; [11]): 15
- Plant response rating, Oat, Wild (wild oat; [12]): 25
- Plant response rating (0 to 100), Oat, Wild (wild oat; 250 g ai/ha, postemergence): 20
- Plant response rating, Oat, Wild (wild oat; [13]): 15

Structure (SMILES): Fc1cnc(Oc2cccc(C(F)F)c2-n2cc(C(F)(F)F)cn2)nc1 [Compound 164]
- Plant response rating, Corn (corn [1]; 125 g ai/ha, 0 to 100 scale where 0 is no effect and 100 is complete control): 10
- Corn plant response rating (corn [1]; [7]): 60
- Barnyardgrass plant response rating (barnyardgrass [2]): 70
- Plant response rating, Barnyardgrass (barnyardgrass [2]): 100
- Corn plant response rating (corn [3]): 40
- Plant response rating, Corn (corn [3]): 90
- Ryegrass, Italian plant response rating (Italian ryegrass; [14]): 0
- Ryegrass, Italian plant response rating (Italian ryegrass; [15]): 65
- Ryegrass, Italian plant response rating (Italian ryegrass; [8]): 98
- Wheat plant response rating (wheat, winter [4]; [14]): 0
- Wheat plant response rating (wheat, winter [4]; [15]): 30
- Wheat plant response rating (wheat, winter [4]; [8]): 35
- Morningglory plant response rating (morningglory; [14]): 10
- Morningglory plant response rating (morningglory; [15]): 85
- Morningglory plant response rating (morningglory; [8]): 100
- Soybean plant response rating (soybean; [14]): 0
- Soybean plant response rating (soybean; [15]): 65
- Soybean plant response rating (soybean; [8]): 95
- Velvetleaf plant response rating (velvetleaf; [14]): 50
- Velvetleaf plant response rating (velvetleaf; [15]): 100
- Velvetleaf plant response rating (velvetleaf; [8]): 100
- Plant response rating (0 to 100), Wheat (wheat, winter [5]; [16]): 0
- Wheat plant response rating (wheat, winter [5]; [11]): 0
- Plant response rating, Wheat (wheat, winter [5]; [12]): 0
- Plant response rating, Wheat (wheat, winter [5]; Postemergence, 62 g ai/ha): 0
- Plant response rating (0 to 100), Galium (galium; [16]): 50
- Galium plant response rating (galium; [11]): 55
- Plant response rating, Galium (galium; [12]): 65
- Plant response rating, Galium (galium; Postemergence, 62 g ai/ha): 80
- Plant response rating (0 to 100), Nutsedge, Yellow (yellow nutsedge; [16]): 5
- Nutsedge, Yellow plant response rating (yellow nutsedge; [11]): 5
- Plant response rating, Nutsedge, Yellow (yellow nutsedge; [12]): 5
- Plant response rating, Nutsedge, Yellow (yellow nutsedge; Postemergence, 62 g ai/ha): 5
- Plant response rating (0 to 100), Ragweed (ragweed; [16]): 20
- Ragweed plant response rating (ragweed; [11]): 15
- Plant response rating, Ragweed (ragweed; [12]): 55
- Plant response rating, Ragweed (ragweed; Postemergence, 62 g ai/ha): 60
- Plant response rating (0 to 100), Barnyardgrass (barnyardgrass [6]; [16]): 0
- Barnyardgrass plant response rating (barnyardgrass [6]; postemergence, visual rating): 0
- Plant response rating, Barnyardgrass (barnyardgrass [6]; [12]): 5
- Plant response rating, Barnyardgrass (barnyardgrass [6]; Postemergence, 62 g ai/ha): 5
- Plant response rating (0 to 100), Waterhemp (waterhemp; [16]): 50
- Waterhemp plant response rating (waterhemp; [11]): 45
- Plant response rating, Waterhemp (waterhemp; [12]): 75
- Plant response rating, Waterhemp (waterhemp; Postemergence, 62 g ai/ha): 65
- Plant response rating (0 to 100), Oat, Wild (wild oat; [16]): 0
- Oat, Wild plant response rating (wild oat; [11]): 5
- Plant response rating, Oat, Wild (wild oat; [12]): 15
- Plant response rating, Oat, Wild (wild oat; Postemergence, 62 g ai/ha): 5
